This is an account of results in ChEMBL document CHEMBL2074126, “A functional assay for quantitation of the apparent affinities of ligands of P-glycoprotein in Caco-2 cells” (Pharm Res, 2001).

Series [1] addresses T1, ATP-dependent translocase ABCB1 (Homo sapiens, UniProt P08183). Kind of series: TP_TRANSPORTER: inhibition of Taxol transepithelial transport (basal to apical) (Taxol: 0.8 uM, Probenecid: 1000 u) in Caco-2 cells. It counts as functional, cell-based. In general terms: Caco-2 cells form a polarised layer with tight junctions and transporters.
In series [2] the target is T1, ATP-dependent translocase ABCB1. Kind of series: TP_TRANSPORTER: inhibition of Taxol transepithelial transport (basal to apical) in Caco-2 cells. It is filed as functional, cell-based.

T1 sequence (P08183 whole entry): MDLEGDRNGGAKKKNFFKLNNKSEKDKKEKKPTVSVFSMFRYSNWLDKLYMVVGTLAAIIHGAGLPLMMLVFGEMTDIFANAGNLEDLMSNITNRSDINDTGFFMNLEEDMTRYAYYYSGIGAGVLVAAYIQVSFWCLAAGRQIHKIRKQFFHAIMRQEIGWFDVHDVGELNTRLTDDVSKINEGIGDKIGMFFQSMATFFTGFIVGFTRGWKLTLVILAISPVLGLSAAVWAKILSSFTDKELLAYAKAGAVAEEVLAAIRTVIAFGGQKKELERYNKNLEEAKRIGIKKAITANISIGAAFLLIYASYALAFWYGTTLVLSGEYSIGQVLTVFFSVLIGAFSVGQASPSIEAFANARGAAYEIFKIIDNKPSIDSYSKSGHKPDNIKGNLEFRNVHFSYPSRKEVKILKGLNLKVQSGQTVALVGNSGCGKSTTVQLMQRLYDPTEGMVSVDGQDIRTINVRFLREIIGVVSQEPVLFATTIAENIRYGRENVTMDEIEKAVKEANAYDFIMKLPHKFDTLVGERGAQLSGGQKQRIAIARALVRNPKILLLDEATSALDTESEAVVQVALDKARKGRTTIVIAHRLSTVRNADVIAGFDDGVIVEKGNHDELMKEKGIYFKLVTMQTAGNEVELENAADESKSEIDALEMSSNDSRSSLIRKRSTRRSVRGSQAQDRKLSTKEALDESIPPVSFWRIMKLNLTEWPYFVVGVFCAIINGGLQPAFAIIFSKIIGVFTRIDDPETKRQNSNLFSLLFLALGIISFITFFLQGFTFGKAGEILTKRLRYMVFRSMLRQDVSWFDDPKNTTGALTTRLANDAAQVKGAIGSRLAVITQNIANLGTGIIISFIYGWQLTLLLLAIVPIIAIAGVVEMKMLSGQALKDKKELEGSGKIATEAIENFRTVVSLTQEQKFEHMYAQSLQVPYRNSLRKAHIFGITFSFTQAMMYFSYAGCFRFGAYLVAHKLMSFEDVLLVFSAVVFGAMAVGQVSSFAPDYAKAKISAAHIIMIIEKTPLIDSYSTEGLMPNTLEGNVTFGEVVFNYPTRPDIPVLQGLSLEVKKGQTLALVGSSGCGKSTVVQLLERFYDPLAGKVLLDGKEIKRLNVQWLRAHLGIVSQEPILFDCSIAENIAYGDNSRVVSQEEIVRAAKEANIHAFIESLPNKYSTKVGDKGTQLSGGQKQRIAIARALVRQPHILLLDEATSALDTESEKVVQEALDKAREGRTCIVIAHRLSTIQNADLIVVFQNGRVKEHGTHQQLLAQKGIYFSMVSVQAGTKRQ

Take `CCCN(CCC)S(=O)(=O)c1ccc(C(=O)O)cc1` [PROBENECID]: in series [1], the Activity result was “is not an inhibitor [-]”. In turn, `CCN(CC)C(=O)Nc1ccc(OCC(O)CNC(C)(C)C)c(C(C)=O)c1` (centres undefined) [CELIPROLOL] had a Ki in series [2] of 313 µM.

For the molecule `COc1cccc2c1C(=O)c1c(O)c3c(c(O)c1C2=O)C[C@@](O)(C(=O)CO)C[C@@H]3O[C@H]1C[C@H](N)[C@H](O)[C@H](C)O1` [DOXORUBICIN], the Ki in series [2] came out at 8.5 µM.

Consider `COc1cccc2c1C(=O)c1c(O)c3c(c(O)c1C2=O)C[C@@](O)(C(C)=O)C[C@@H]3O[C@H]1C[C@H](N)[C@H](O)[C@H](C)O1` [DAUNORUBICIN], for which the affinity in series [2] corresponds to a Ki of 2.5 µM.

Usually Ki stands for a measure of affinity in units of concentration, obtained from inhibition or displacement.
